In ChEMBL document CHEMBL5370616, “Novel Nitric Oxide Donor-Azole Conjugation Strategy for Efficient Treatment of Cryptococcus neoformans Infections” (J Med Chem, 2023):
Converted amounts (≈) assume the structure as drawn. The source made the active and inactive calls. No cut-off for these calls is given here.

Experiments:
Cryptococcus neoformans [1] = test: Fungicidal activity against Cryptococcus neoformans H99 assessed as reduction in colony forming units at 8 ug/ml incubated upto 72 hrs by time-kill assay; format: functional; parameters: scale not given: the % may be the effect or the level left; details: dose 8 µg/ml
Candida albicans [2] = test: Antifungal activity against Candida albicans SC5314 assessed as reduction in fungal growth incubated for 48 hrs by CLSI protocol based microplate reader analysis; format: functional
Cryptococcus neoformans [3] = test: Antifungal activity against Cryptococcus neoformans H99 assessed as reduction in melanin production at 16 ug/ml by microplate analysis; format: functional, organism-based; details: dose 16.0 µg/ml
Cryptococcus neoformans [4] = test: Inhibition of CYP51 in Cryptococcus neoformans H99 assessed as increase in other unknown sterol level at 0.125 ug/ml incubated for 24 hrs by GC-MS analysis (Rvb= 12.49%); details: dose 0.125 µg/ml
Cryptococcus neoformans [5] = test: In vivo antifungal activity against Cryptococcus neoformans H99 infected in cryptococcal meningitis ICR mouse model assessed as reduction in irregular cavities in brain at 1 mg/kg,INH QD for 5 days by H and E staining based microscopic analysis; format: functional, organism-based; details: time 5.0 day
[6] = Metabolic stability in Sprague-Dawley rat plasma assessed as parent compound remaining at 500 uM and measured upto 120 mins by HPLC analysis; format: ADME, cell-free; details: 2 h
Cryptococcus neoformans [7] = test: Fungicidal activity against Cryptococcus neoformans H99 assessed as cell death by measuring red fluorescence at 8 ug/ml incubated for 12 hrs by PI staining based confocal laser scanning microscopy; format: functional, organism-based; details: dose 8.0 µg/ml
Cryptococcus neoformans [8] = test: Antifungal activity against Cryptococcus neoformans H99 assessed as reduction in number of colonies at 0.125 to 1 ug/ml incubated for 72 hrs by agar disk diffusion assay; format: functional; parameters: scale not given: the % may be the effect or the level left; details: dose 0.125-1 µg/ml, at 0.125 to 1 µg/mL
Cryptococcus neoformans [9] = test: Antifungal activity against Cryptococcus neoformans H99 assessed as reduction in urease production at 4 ug/ml by microplate analysis; format: functional, organism-based; details: dose 4.0 µg/ml
Cryptococcus neoformans [10] = test: Antifungal activity against Cryptococcus neoformans H99 assessed as change in internal microstructure by observing cell membrane damage at 0.125 to 4 ug/ml incubated for 8 hrs by TEM analysis; format: functional, organism-based; details: dose 0.125-4 µg/ml
Cryptococcus neoformans [11] = test: In vivo antifungal activity against Cryptococcus neoformans H99 infected in cryptococcal meningitis ICR mouse model assessed as reduction in organism brain invasion at 1 mg/kg,INH QD for 5 days by PAS staining based microscopic analysis; format: functional; details: time 5.0 day
Candida albicans [12] = test: Antifungal activity against Candida albicans 0304103 assessed as reduction in fungal growth incubated for 48 hrs by CLSI protocol based microplate reader analysis; format: functional
Cryptococcus neoformans [13] = test: Inhibition of biofilm formation in Cryptococcus neoformans H99 at 0.25 ug/ml incubated for 24 hrs by XTT reduction assay; format: functional
Cryptococcus neoformans [14] = test: Antifungal activity against Cryptococcus neoformans H99 assessed as reduction in fungal growth incubated for 72 hrs by CLSI protocol based microplate reader analysis; format: functional
Cryptococcus neoformans [15] = test: In vivo antifungal activity against Cryptococcus neoformans H99 infected in cryptococcal meningitis ICR mouse model assessed as reduction in fungal burden in brain at 1 mg/kg,INH QD for 5 days by CFU assay; format: functional, organism-based; details: time 5.0 day
Cryptococcus neoformans [16] = test: Disruption of preformed mature biofilm in Cryptococcus neoformans H99 assessed as removal of mature biofilm at 0.125 to 32 ug/ml incubated for 24 hrs in presence of 2-phenyl-4,4,5,5-tetramethylimidazoline-l-oxyl 3-oxide by XTT reduction assay; format: functional, organism-based; details: dose 0.125-32 µg/ml
Cryptococcus neoformans [17] = test: Inhibition of CYP51 in Cryptococcus neoformans H99 assessed as increase in lanosterol level at 0.125 ug/ml incubated for 24 hrs by GC-MS analysis (Rvb= 6.24%); details: dose 0.125 µg/ml
Cryptococcus neoformans [18] = test: Antifungal activity against Cryptococcus neoformans H99 assessed as reduction in fungal growth at 0.25 to 8 ug/ml incubated upto 72 hrs by microplate reader analysis; format: functional, organism-based; details: dose 0.25-8 µg/ml
Cryptococcus neoformans [19] = test: Inhibition of CYP51 in Cryptococcus neoformans H99 assessed as decrease in unknown sterol level at 0.125 ug/ml incubated for 24 hrs by GC-MS analysis (Rvb= 22.95%); details: dose 0.125 µg/ml
Cryptococcus neoformans [20] = test: Inhibition of CYP51 in Cryptococcus neoformans H99 assessed as reduction in ergosterol level at 0.125 ug/ml incubated for 24 hrs by GC-MS analysis (Rvb= 58.33%); details: dose 0.125 µg/ml
Cryptococcus neoformans [21] = test: Antifungal activity against Cryptococcus neoformans H99 assessed as change in internal microstructure by observing sparse capsule at 0.125 to 4 ug/ml incubated for 8 hrs by TEM analysis; format: functional, organism-based; details: dose 0.125-4 µg/ml
Cryptococcus neoformans [22] = test: Disruption of preformed mature biofilm in Cryptococcus neoformans H99 assessed as removal of mature biofilm at 0.125 ug/ml incubated for 24 hrs by XTT reduction assay; format: functional; parameters: scale not given: the % may be the effect or the level left; details: dose 0.125 µg/ml
Nakaseomyces glabratus = test: Antifungal activity against Candida glabrata 10639 assessed as reduction in fungal growth incubated for 48 hrs by CLSI protocol based microplate reader analysis; format: functional
Cryptococcus neoformans [23] = test: In vivo antifungal activity against Cryptococcus neoformans H99 infected in cryptococcal meningitis ICR mouse model assessed as reduction in fungal burden in lung at 1 mg/kg,INH QD for 5 days by CFU assay; format: functional, organism-based; details: time 5.0 day
Cryptococcus neoformans [24] = test: In vivo antifungal activity against Cryptococcus neoformans H99 infected in cryptococcal meningitis ICR mouse model assessed as reduction in neuronal necrosis at 1 mg/kg,INH QD for 5 days by H and E staining based microscopic analysis; format: functional, organism-based; details: time 5.0 day
[25] = Metabolic stability in Sprague-Dawley rat liver microsomes assessed as parent compound remaining at 200 uM and measured upto 120 mins by HPLC analysis; format: ADME, Microsome; details: 2 h
Cryptococcus neoformans [26] = test: Disruption of preformed mature biofilm in Cryptococcus neoformans H99 assessed as removal of mature biofilm at 32 ug/ml incubated for 24 hrs by XTT reduction assay; format: functional; parameters: scale not given: the % may be the effect or the level left; details: dose 32 µg/ml
Cryptococcus neoformans [27] = test: In vivo antifungal activity against Cryptococcus neoformans H99 infected in cryptococcal meningitis ICR mouse model assessed as reduction in blood vessel congestion at 1 mg/kg,INH QD for 5 days by H and E staining based microscopic analysis; format: functional, organism-based; details: time 5.0 day
[28] = Drug metabolism in Cryptococcus neoformans H99 assessed as NO release by measuring green fluorescence at 8 ug/ml incubated for 12 hrs by DAF-FM DA staining based confocal laser scanning microscopy; format: ADME; details: dose 8 µg/ml
Cryptococcus neoformans [29] = test: Inhibition of biofilm formation in Cryptococcus neoformans H99 at 0.25 ug/ml incubated for 24 hrs in presence of 2-phenyl-4,4,5,5-tetramethylimidazoline-l-oxyl 3-oxide by XTT reduction assay; format: functional, organism-based; details: dose 0.25 µg/ml
Cryptococcus neoformans [30] = test: In vivo antifungal activity against Cryptococcus neoformans H99 infected in cryptococcal meningitis ICR mouse model assessed as reduction in fungal burden in lung at 10 mg/kg,INH QD for 5 days by CFU assay; format: functional, organism-based; details: time 5.0 day
Cryptococcus neoformans [31] = test: In vivo antifungal activity against Cryptococcus neoformans H99 infected in cryptococcal meningitis ICR mouse model assessed as reduction in organism brain invasion at 10 mg/kg,INH QD for 5 days by PAS staining based microscopic analysis; format: functional; details: time 5.0 day
Cryptococcus neoformans [32] = test: In vivo antifungal activity against Cryptococcus neoformans H99 infected in cryptococcal meningitis ICR mouse model assessed as reduction in neuronal necrosis at 10 mg/kg,INH QD for 5 days by H and E staining based microscopic analysis; format: functional, organism-based; details: time 5.0 day
Cryptococcus neoformans [33] = test: In vivo antifungal activity against Cryptococcus neoformans H99 infected in cryptococcal meningitis ICR mouse model assessed as reduction in blood vessel congestion at 10 mg/kg,INH QD for 5 days by H and E staining based microscopic analysis; format: functional, organism-based; details: time 5.0 day
Cryptococcus neoformans [34] = test: In vivo antifungal activity against Cryptococcus neoformans H99 infected in cryptococcal meningitis ICR mouse model assessed as reduction in fungal burden in brain at 10 mg/kg,INH QD for 5 days by CFU assay; format: functional, organism-based; details: time 5.0 day
Cryptococcus neoformans [35] = test: In vivo antifungal activity against Cryptococcus neoformans H99 infected in cryptococcal meningitis ICR mouse model assessed as reduction in irregular cavities in brain at 10 mg/kg,INH QD for 5 days by H and E staining based microscopic analysis; format: functional, organism-based; details: time 5.0 day

SMILES: CN(Cc1ccc(OCCCOc2ccc(CC(=O)OCCO[N+](=O)[O-])cc2)cc1)CC(O)(Cn1cncn1)c1ccc(F)cc1F (configuration not stated)
- Activity (Cryptococcus neoformans [1]): 100%
- MIC80 (Candida albicans [2]): 1 µg/mL (≈ 1.53 µM)
- Activity (Cryptococcus neoformans [3]): Active
- inhibition (Cryptococcus neoformans [4]): 26.5%
- Activity (Cryptococcus neoformans [5]): Active
- Stability [6]: Unstable
- Activity (Cryptococcus neoformans [7]): Active
- Activity (Cryptococcus neoformans [8]): 100%
- Activity (Cryptococcus neoformans [9]): Active
- Activity (Cryptococcus neoformans [10]): Active
- Activity (Cryptococcus neoformans [11]): Active
- MIC80 (Candida albicans [12]): > 64 µg/mL
- inhibition at 0.25 µg/mL (Cryptococcus neoformans [13]): > 50%
- MIC80 (Cryptococcus neoformans [14]): 0.125 µg/mL (≈ 0.191 µM)
- Activity (Cryptococcus neoformans [15]): Active
- Activity (Cryptococcus neoformans [16]): inactive
- inhibition (Cryptococcus neoformans [17]): 44.5%
- Activity (Cryptococcus neoformans [18]): Dose-Dependent Effect
- inhibition (Cryptococcus neoformans [19]): 5.31%
- inhibition (Cryptococcus neoformans [20]): 23.7%
- Activity (Cryptococcus neoformans [21]): Dose-Dependent Effect
- Activity (Cryptococcus neoformans [22]): 25%
- MIC80 (Nakaseomyces glabratus): 1 µg/mL (≈ 1.53 µM)
- Activity (Cryptococcus neoformans [23]): Active
- Activity (Cryptococcus neoformans [24]): Active
- Stability [25]: Unstable
- Activity (Cryptococcus neoformans [26]): 50%
- Activity (Cryptococcus neoformans [27]): Active
- Drug metabolism [28]: Metabolite_Detected
- inhibition (Cryptococcus neoformans [29]): inactive

SMILES: CN(Cc1ccc(OCCCOc2ccc(CC(=O)NCCO[N+](=O)[O-])cc2)cc1)CC(O)(Cn1cncn1)c1ccc(F)cc1F (configuration not stated)
- MIC80 (Candida albicans [2]): 1 µg/mL (≈ 1.53 µM)
- Stability [6]: Stable
- Activity (Cryptococcus neoformans [30]): inactive
- MIC80 (Candida albicans [12]): > 64 µg/mL
- MIC80 (Cryptococcus neoformans [14]): 0.125 µg/mL (≈ 0.191 µM)
- Activity (Cryptococcus neoformans [31]): Active
- Activity (Cryptococcus neoformans [32]): Active
- Activity (Cryptococcus neoformans [33]): Active
- MIC80 (Nakaseomyces glabratus): 1 µg/mL (≈ 1.53 µM)
- Activity (Cryptococcus neoformans [34]): Active
- Stability [25]: Stable
- Activity (Cryptococcus neoformans [35]): Active
